One compound from BindingDB's records for doi:10.1021/acs.jmedchem.8b01226 (Recordati, 2019) can be followed below.

The target in the test is Metabotropic glutamate receptor 1 (Rattus norvegicus, UniProt P23385). Kind of test: Displacement of […] from rat mGlu1 receptor expressed in CHO-TREx cell membranes after 30 mins by liquid scintillation spectrometric analysis. In general terms: Loss of bound radioactivity is the signal in a displacement assay; it reports binding, not function.

pKi: −log10 of the molar value.

Metabotropic glutamate receptor 1, sequence (P23385 whole entry): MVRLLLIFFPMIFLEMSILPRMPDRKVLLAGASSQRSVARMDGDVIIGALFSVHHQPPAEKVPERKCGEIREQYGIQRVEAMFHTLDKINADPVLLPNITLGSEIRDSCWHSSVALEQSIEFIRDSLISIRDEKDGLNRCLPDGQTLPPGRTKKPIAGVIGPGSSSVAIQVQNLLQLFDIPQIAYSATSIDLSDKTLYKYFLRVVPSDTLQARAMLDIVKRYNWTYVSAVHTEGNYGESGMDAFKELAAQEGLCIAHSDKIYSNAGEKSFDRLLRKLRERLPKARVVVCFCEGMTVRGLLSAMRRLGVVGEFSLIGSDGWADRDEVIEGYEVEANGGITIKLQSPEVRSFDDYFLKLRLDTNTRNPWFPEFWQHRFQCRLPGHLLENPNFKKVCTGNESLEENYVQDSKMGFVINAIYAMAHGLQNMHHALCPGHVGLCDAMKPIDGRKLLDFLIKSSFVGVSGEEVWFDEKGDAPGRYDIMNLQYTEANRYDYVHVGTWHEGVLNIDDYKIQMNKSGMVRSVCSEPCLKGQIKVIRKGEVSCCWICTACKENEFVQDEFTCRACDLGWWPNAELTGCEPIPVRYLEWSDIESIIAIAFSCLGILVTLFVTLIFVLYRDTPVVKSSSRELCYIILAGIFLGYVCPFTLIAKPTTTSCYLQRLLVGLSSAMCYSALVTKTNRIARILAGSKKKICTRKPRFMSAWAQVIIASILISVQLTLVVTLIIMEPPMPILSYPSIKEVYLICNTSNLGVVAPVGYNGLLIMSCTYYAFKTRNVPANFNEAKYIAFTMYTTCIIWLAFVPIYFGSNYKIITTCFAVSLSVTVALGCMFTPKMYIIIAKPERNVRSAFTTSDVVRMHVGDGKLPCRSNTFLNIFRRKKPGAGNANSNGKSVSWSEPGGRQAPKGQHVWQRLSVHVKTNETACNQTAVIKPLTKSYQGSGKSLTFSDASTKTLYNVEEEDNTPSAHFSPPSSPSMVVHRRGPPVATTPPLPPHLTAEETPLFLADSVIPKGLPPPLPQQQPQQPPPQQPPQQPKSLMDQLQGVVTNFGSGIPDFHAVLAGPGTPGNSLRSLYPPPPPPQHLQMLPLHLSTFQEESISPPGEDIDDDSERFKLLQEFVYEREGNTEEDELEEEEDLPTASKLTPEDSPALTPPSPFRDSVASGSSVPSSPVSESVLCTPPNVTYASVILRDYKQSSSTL

Broadly, the pKi is −log10 of the Ki, conventionally taken in molar units. For `Cc1nc(C#Cc2cccnc2)cs1` [3-(2-(2-methylthiazol-4-yl)ethynyl)pyridine], the pKi was below 5.00.
